{"source": "patent US9370492B2", "about": "“Solid pharmaceutical dosage forms comprising bisphosphonates and modified amino acid carriers” (EMISPHERE TECHNOLOGIES, INC., priority 2005, dated 2016)", "origin": "cited, not measured here", "note": "Structures can show the parent of a compound that is named as a salt."}
{"smiles": "CCCCCN(C)CCC(O)(P(=O)(O)O)P(=O)(O)O", "note": "[Ibandronate sodium, 3-(N-methyl-N-pentyl)amino-1-hydroxypropane-1,1-diphosphonic acid, monosodium salt, monohydrate]", "values": [{"measurement": "solubility in organic solvents", "setting": "organic solvents", "value": "practically insoluble"}, {"measurement": "solubility in water", "setting": "water", "value": "freely soluble"}]}
